Data published in patent US9994617B2, “Modulation of structured polypeptide specificity” (BICYCLE THERAPEUTICS LIMITED, priority 2011, dated 2018).
Numbered stars: 1 amine (or outer) side, 2 acyl side, 3 side chain; on linkers, the order of the positions; unused ones are H or OH. Bridge positions count the residues as written; N and C are the ends. Square brackets hold non-standard residues; d marks the D form. Peptide text beside a SMILES is read from it. TBMB = c1c(C[*:1])cc(C[*:3])cc1C[*:2]; NMeC = CN[C@@H](CS)C(=O)O; NMeS = CN[C@@H](CO)C(=O)O

Experiments:
[1] = molecular target: human plasma kallikrein (hPK) (Homo sapiens, UniProt P03952); assay: Enzyme inhibition assay, human plasma kallikrein
Human thrombin = Human thrombin (Homo sapiens, UniProt P00734); assay: Inhibition of paralogous protease thrombin; format: biochemical
Experimental: (§1) The target specificity of the isolated bicyclic peptide inhibitors was assessed by determining the inhibition of trypsin-like human serine proteases of the class S1A which comprises 79 members (Yousef, et al, Biochem Biophys Res Commun 2003, 305 (1), 28-36). The panel of proteases included hfXIa which shares the highest sequence identity with hPK (69%) as well as the structurally less related but vital human serine proteases thrombin (36%), plasmin (34% sequence identity with hPK) and factor XIIa (35%).

[2] = molecular target: T1, Human factor XIIa (hfXIIa) (Homo sapiens, UniProt P00748); assay: Inhibition of paralogous protease factor XIIa; format: biochemical
T1 sequence (P00748 373-615 limits assumed): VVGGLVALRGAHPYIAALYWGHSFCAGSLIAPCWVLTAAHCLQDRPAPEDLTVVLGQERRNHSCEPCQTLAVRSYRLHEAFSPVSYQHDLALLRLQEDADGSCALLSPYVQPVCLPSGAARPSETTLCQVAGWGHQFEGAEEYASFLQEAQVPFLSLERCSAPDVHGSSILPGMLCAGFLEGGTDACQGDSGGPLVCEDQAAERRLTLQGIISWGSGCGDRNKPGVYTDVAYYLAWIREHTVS
Experimental: as §1

SMILES	Ki [1]	further results
CC(C)[C@@H]1NC(=O)[C@H](CCCNC(=N)N)NC(=O)[C@@H]2CSCc3cc(cc(c3)CSC[C@@H](C(=O)N[C@@H](C)C(N)=O)NC(=O)[C@H](CC(N)=O)NC1=O)CSC[C@H](NC(=O)[C@H](C)N)C(=O)N[C@@H](Cc1ccccc1)C(=O)N[C@@H](CCCCN)C(=O)N[C@@H](CCC(N)=O)C(=O)N2 [Peptide 06-94] (H-ACFKQCRVNCA-NH2; linker 2-6-10 via TBMB)	0.7 nM	IC50 (Human thrombin): > 10000 nM
CC(=O)N[C@H]1CSCc2cc3cc(c2)CSC[C@H](NC(=O)[C@H](CCCNC(=N)N)NC(=O)[C@H](C)NC(=O)[C@H]2CCCN2C(=O)[C@H](Cc2c[nH]c4ccccc24)NC(=O)[C@H](CO)NC1=O)C(=O)N[C@@H](CC(C)C)C(=O)N[C@@H](Cc1c[nH]cn1)C(=O)N[C@@H](CCC(N)=O)C(=O)N[C@@H](CC(=O)O)C(=O)N[C@@H](CC(C)C)C(=O)N[C@H](C(N)=O)CSC3 [Ac-(06-34-18) D-Pro3]	680 nM	
CC(=O)N[C@H]1CSCc2cc3cc(c2)CSC[C@H](NC(=O)[C@H](CCNC(=N)N)NC(=O)[C@H](C)NC(=O)[C@@H]2CCCN2C(=O)[C@H](Cc2c[nH]c4ccccc24)NC(=O)[C@H](CO)NC1=O)C(=O)N[C@@H](CC(C)C)C(=O)N[C@@H](Cc1c[nH]cn1)C(=O)N[C@@H](CCC(N)=O)C(=O)N[C@@H](CC(=O)O)C(=O)N[C@@H](CC(C)C)C(=O)N[C@H](C(N)=O)CSC3 [Ac-(06-34-18) Agb5]	83 nM	
CC(=O)N[C@H]1CSCc2cc3cc(c2)CSC[C@H](NC(=O)[C@H](CCCNC(=N)N)NC(=O)[C@H](CO)NC(=O)[C@H](Cc2c[nH]c4ccccc24)NC(=O)[C@@H]2CCCN2C(=O)[C@H](C)NC1=O)C(=O)N[C@@H](CC(C)C)C(=O)N[C@@H](Cc1c[nH]cn1)C(=O)N[C@@H](CCC(N)=O)C(=O)N[C@@H](CC(=O)O)C(=O)N[C@@H](CC(C)C)C(=O)N[C@H](C(N)=O)CSC3 [Ac-(06-34-18) Scram3] (Ac-CAPWSRCLHQDLC-NH2; linker 1-7-13 via TBMB)	1890 nM	
CC(=O)N[C@H]1CSCc2cc3cc(c2)CSC[C@H](NC(=O)[C@H](CCCNC(=N)N)NC(=O)[C@H](C)NC(=O)[C@@H]2CCCN2C(=O)[C@H](Cc2c[nH]c4ccccc24)NC(=O)[C@H](CO)N(C)C1=O)C(=O)N[C@@H](CC(C)C)C(=O)N[C@@H](Cc1c[nH]cn1)C(=O)N[C@@H](CCC(N)=O)C(=O)N[C@@H](CC(=O)O)C(=O)N[C@@H](CC(C)C)C(=O)N[C@H](C(N)=O)CSC3 [Ac-(06-34-18) NMeSer1] (Ac-C[NMeS]WPARCLHQDLC-NH2; linker 1-7-13 via TBMB)	0.5 nM	
C[C@H](N)C(=O)N[C@H]1CSCc2cc3cc(c2)CSC[C@H](NC(=O)[C@H](CC(N)=O)NC(=O)[C@H](CC(N)=O)NC(=O)[C@H](Cc2ccc(O)cc2)NC(=O)CNC(=O)CNC1=O)C(=O)N[C@@H](CCCNC(=N)N)C(=O)N[C@@H](C)C(=O)N[C@@H](Cc1ccccc1)C(=O)N[C@@H](CO)C(=O)N[C@@H](Cc1ccc(O)cc1)C(=O)N[C@H](C(=O)N[C@@H](C)C(N)=O)CSC3 [Peptide 1F7] (H-ACGGYNNCRAFSYCA-NH2; linker 2-8-14 via TBMB)	2.2 nM	
CC(=O)N[C@H]1CSCc2cc3cc(c2)CSC[C@H](NC(=O)[C@H](CNC(=N)N)NC(=O)[C@H](C)NC(=O)[C@@H]2CCCN2C(=O)[C@H](Cc2c[nH]c4ccccc24)NC(=O)[C@H](CO)NC1=O)C(=O)N[C@@H](CC(C)C)C(=O)N[C@@H](Cc1c[nH]cn1)C(=O)N[C@@H](CCC(N)=O)C(=O)N[C@@H](CC(=O)O)C(=O)N[C@@H](CC(C)C)C(=O)N[C@H](C(N)=O)CSC3 [Ac-(06-34-18) Agp5]	1770 nM	
CC(C)[C@@H]1NC(=O)[C@H](CCCNC(=N)N)NC(=O)[C@@H]2CSCc3cc(cc(c3)CSC[C@@H](C(=O)N[C@@H](C)C(N)=O)NC(=O)[C@H](C)NC1=O)CSC[C@H](NC(=O)[C@H](C)N)C(=O)N[C@@H](Cc1ccccc1)C(=O)N[C@@H](CCCCN)C(=O)N[C@@H](Cc1c[nH]cn1)C(=O)N2 [Peptide 3B8] (H-ACFKHCRVACA-NH2; linker 2-6-10 via TBMB)	0.95 nM	IC50 (Human thrombin): > 10000 nM
CC(=O)N[C@H]1CSCc2cc3cc(c2)CSC[C@H](NC(=O)[C@H](CCCNC(=N)N)NC(=O)[C@H](C)NC(=O)[C@@H]2CCCN2C(=O)[C@@H](Cc2c[nH]c4ccccc24)NC(=O)[C@H](CO)NC1=O)C(=O)N[C@@H](CC(C)C)C(=O)N[C@@H](Cc1c[nH]cn1)C(=O)N[C@@H](CCC(N)=O)C(=O)N[C@@H](CC(=O)O)C(=O)N[C@@H](CC(C)C)C(=O)N[C@H](C(N)=O)CSC3 [Ac-(06-34-18) D-Trp2]	7560 nM	fold reduction in affinity to kallikrein compared to wildtype peptide ([1]; versus Ac-06-34-18(TMB)-NH2): 45000 fold
CSCC[C@@H]1NC(=O)[C@H]([C@@H](C)O)NC(=O)[C@@H]2CSCc3cc(cc(c3)CSC[C@@H](C(=O)N[C@@H](C)C(N)=O)NC(=O)[C@H](Cc3c[nH]c4ccccc34)NC(=O)[C@H](CC(N)=O)NC(=O)[C@H](CCC(N)=O)NC1=O)CSC[C@H](NC(=O)[C@H](C)N)C(=O)N[C@@H]([C@@H](C)O)C(=O)N[C@@H](Cc1c[nH]c3ccccc13)C(=O)N1CCC[C@H]1C(=O)N[C@@H](C)C(=O)N[C@@H](CCCNC(=N)N)C(=O)N2 [06-A2*] (H-ACTWPARCTMQNWCA-NH2; linker 2-8-14 via TBMB)	181 nM	IC50 [2]: > 10000 nM
CC(=O)N[C@H]1CSCc2cc3cc(c2)CSC[C@H](NC(=O)[C@H](CCCNC(=N)N)NC(=O)[C@@H]2CCCN2C(=O)[C@H](CO)NC(=O)[C@H](C)NC(=O)[C@H](Cc2c[nH]c4ccccc24)NC1=O)C(=O)N[C@@H](CC(C)C)C(=O)N[C@@H](Cc1c[nH]cn1)C(=O)N[C@@H](CCC(N)=O)C(=O)N[C@@H](CC(=O)O)C(=O)N[C@@H](CC(C)C)C(=O)N[C@H](C(N)=O)CSC3 [Ac-(06-34-18) Scram2] (Ac-CWASPRCLHQDLC-NH2; linker 1-7-13 via TBMB)	11400 nM	
CC(=O)N[C@H]1CSCc2cc3cc(c2)CSC[C@H](NC(=O)[C@H](CCCNC(=N)N)NC(=O)[C@H](Cc2c[nH]c4ccccc24)NC(=O)[C@H](C)NC(=O)[C@H](CO)NC(=O)[C@@H]2CCCN2C1=O)C(=O)N[C@@H](CC(C)C)C(=O)N[C@@H](Cc1c[nH]cn1)C(=O)N[C@@H](CCC(N)=O)C(=O)N[C@@H](CC(=O)O)C(=O)N[C@@H](CC(C)C)C(=O)N[C@H](C(N)=O)CSC3 [Ac-(06-34-18) Scram1] (Ac-CPSAWRCLHQDLC-NH2; linker 1-7-13 via TBMB)	1090 nM	
CC(C)[C@@H]1NC(=O)[C@H](CCCNC(=N)N)NC(=O)[C@@H]2CSCc3cc(cc(c3)CSC[C@@H](C(=O)N[C@@H](C)C(N)=O)NC(=O)[C@H](CC(N)=O)NC1=O)CSC[C@H](NC(=O)[C@H](C)N)C(=O)N[C@@H](Cc1ccccc1)C(=O)N[C@@H](CC(N)=O)C(=O)N[C@@H](CCCCN)C(=O)N2 [Peptide 06-64] (H-ACFNKCRVNCA-NH2; linker 2-6-10 via TBMB)	4.8 nM	
CC(C)[C@@H]1NC(=O)[C@H](CCCNC(=N)N)NC(=O)[C@@H]2CSCc3cc(cc(c3)CSC[C@@H](C(=O)N[C@@H](C)C(N)=O)NC(=O)[C@H](CC(N)=O)NC1=O)CSC[C@H](NC(=O)[C@H](C)N)C(=O)N[C@@H](Cc1ccccc1)C(=O)N[C@@H](CCCCN)C(=O)N[C@@H](CC(N)=O)C(=O)N2 [Peptide 3B2] (H-ACFKNCRVNCA-NH2; linker 2-6-10 via TBMB)	9 nM	
CC(=O)N[C@H]1CSCc2cc3cc(c2)CSC[C@H](NC(=O)[C@H](CCCNC(=N)N)NC(=O)[C@H](C)NC(=O)[C@H](C)NC(=O)[C@H](C)NC(=O)[C@H](CO)NC1=O)C(=O)N[C@@H](CC(C)C)C(=O)N[C@@H](Cc1c[nH]cn1)C(=O)N[C@@H](CCC(N)=O)C(=O)N[C@@H](CC(=O)O)C(=O)N[C@@H](CC(C)C)C(=O)N[C@H](C(N)=O)CSC3 [Ac-(06-34-18) A2A3] (Ac-CSAAARCLHQDLC-NH2; linker 1-7-13 via TBMB)	18500 nM	
CC(=O)N[C@H]1CSCc2cc3cc(c2)CSC[C@@H](C(=O)N[C@@H](CC(C)C)C(=O)N[C@@H](Cc2c[nH]cn2)C(=O)N[C@@H](CCC(N)=O)C(=O)N[C@@H](CC(=O)O)C(=O)N[C@@H](CC(C)C)C(=O)N[C@H](C(N)=O)CSC3)N(C)C(=O)[C@H](CCCNC(=N)N)NC(=O)[C@H](C)NC(=O)[C@@H]2CCCN2C(=O)[C@H](Cc2c[nH]c3ccccc23)NC(=O)[C@H](CO)NC1=O [Ac-(06-34-18) NMeCys2] (Ac-CSWPAR[NMeC]LHQDLC-NH2; linker 1-7-13 via TBMB)	418 nM	
CC(=O)N[C@H]1CSCc2cc3cc(c2)CSC[C@H](NC(=O)C[C@H](CCCNC(=N)N)NC(=O)[C@H](C)NC(=O)[C@@H]2CCCN2C(=O)[C@H](Cc2c[nH]c4ccccc24)NC(=O)[C@H](CO)NC1=O)C(=O)N[C@@H](CC(C)C)C(=O)N[C@@H](Cc1c[nH]cn1)C(=O)N[C@@H](CCC(N)=O)C(=O)N[C@@H](CC(=O)O)C(=O)N[C@@H](CC(C)C)C(=O)N[C@H](C(N)=O)CSC3 [Ac-(06-34-18) βhomoArg5]	8.2 nM	
CC(=O)N[C@H]1CSCc2cc3cc(c2)CSC[C@H](NC(=O)[C@H](CCCNC(=N)N)NC(=O)[C@H](C)NC(=O)[C@H](CCC(N)=O)NC(=O)[C@H](C)NC(=O)[C@H](CO)NC1=O)C(=O)N[C@@H](CC(C)C)C(=O)N[C@@H](Cc1c[nH]cn1)C(=O)N[C@@H](CCC(N)=O)C(=O)N[C@@H](CC(=O)O)C(=O)N[C@@H](CC(C)C)C(=O)N[C@H](C(N)=O)CSC3 [Ac-(06-34-18) A2Q3] (Ac-CSAQARCLHQDLC-NH2; linker 1-7-13 via TBMB)	15800 nM	
